Molecules are shown by their SMILES.

Holding throughout (type): in vivo
The subject of test [1] is Alopecurus myosuroides (ALOMY). Description: Example B pre-emergence herbicidal activity. The following applies: 312 h, rate 250 g/ha, evaluated after 13 days, read-out: Pre-Emergence Activity ALOMY (100=total damage to plant; 0=no damage to plant). In outline:
(§1)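 Visual injury score (0 none to 100 total) taken 13 days after spraying. Treatment was applied pre-emergence at day 1 or post-emergence at day 8, using acetone/water 50:50 containing 0.5% Tween 20.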

Test [2] relates to Amaranthus retoflexus (AMARE). Description: Example B pre-emergence herbicidal activity. The following applies: Amaranthus retroflexus, 312 h, rate 250 g/ha, evaluated after 13 days, read-out: Pre-Emergence Activity AMARE (100=total damage to plant; 0=no damage to plant). In outline:
as §1

The subject of test [3] is Avena fatua (AVEFA). Description: Example B pre-emergence herbicidal activity. The following applies: 312 h, rate 250 g/ha, evaluated after 13 days, read-out: Pre-Emergence Activity AVEFA (100=total damage to plant; 0=no damage to plant). In outline: as §1
The test system of test [4] is Echinochloa crus-galli (ECHCG). Description: Example B pre-emergence herbicidal activity. The following applies: 312 h, rate 250 g/ha, evaluated after 13 days, read-out: Pre-Emergence Activity ECHCG (100=total damage to plant; 0=no damage to plant). In outline:
as §1

The test system of test [5] is Setaria faberi (SETFA). Description: Example B pre-emergence herbicidal activity. Particulars: 312 h, rate 250 g/ha, evaluated after 13 days, read-out: Pre-Emergence Activity SETFA (100=total damage to plant; 0=no damage to plant). An outline of the steps:
as §1

The test system of test [6] is Alopecurus myosuroides (ALOMY). Description: Example B post-emergence herbicidal activity. Particulars: 312 h, rate 250 g/ha, evaluated after 13 days, read-out: Post-emergence activity ALOMY (100=total damage to plant; 0=no damage to plant). In outline:
as §1

Test [7] concerns Amaranthus retoflexus (AMARE). Description: Example B post-emergence herbicidal activity. The following applies: Amaranthus retroflexus, 312 h, rate 250 g/ha, evaluated after 13 days, read-out: Post-emergence activity AMARE (100=total damage to plant; 0=no damage to plant). In outline: as §1
In test [8] the test system is Avena fatua (AVEFA). Description: Example B post-emergence herbicidal activity. Particulars: 312 h, rate 250 g/ha, evaluated after 13 days, read-out: Post-emergence activity AVEFA (100=total damage to plant; 0=no damage to plant). An outline of the steps:
as §1

Test [9] concerns Echinochloa crus-galli (ECHCG). Description: Example B post-emergence herbicidal activity. Particulars: 312 h, rate 250 g/ha, evaluated after 13 days, read-out: Post-emergence activity ECHCG (100=total damage to plant; 0=no damage to plant). In outline: as §1
Test [10] concerns Setaria faberi (SETFA). Description: Example B post-emergence herbicidal activity. Particulars: 312 h, rate 250 g/ha, evaluated after 13 days, read-out: Post-emergence activity SETFA (100=total damage to plant; 0=no damage to plant). In outline:
as §1

As to `CCOC(=O)COC1=C(c2sc(-c3ccc(Cl)cc3)nc2C)C(=O)[C@H]2CC[C@@H]1C2` [Compound P11], the pest or weed control at 250 g/ha in test [1] turned out to be 0%; in [2], 0%; in the test on Avena fatua (AVEFA) [3], 0%; in test [4] it was 0%; in the test with Setaria faberi (SETFA) [5] it was 80%; in test [6] it was 20%. Moreover, the pest or weed control at 250 g/ha in [7] turned out to be 0%; in the test with Avena fatua (AVEFA) [8] it was 20%; in [9], 80%; in the test on Setaria faberi (SETFA) [10], 80%.

In the case of `CC(C)(C)C(=O)OC1=C(c2csc(-c3ccc(Cl)cc3)n2)C(=O)[C@@H]2CC[C@H]1C2` [Compound P22], the pest or weed control at 250 g/ha in test [1] was 0%; in test [2] it was 0%; with Avena fatua (AVEFA) [3], 0%; in [4] it was 0%; with Setaria faberi (SETFA) [5], 30%; in test [6] it was 0%. Besides, the pest or weed control at 250 g/ha in [7] was determined as 0%; in the test with Avena fatua (AVEFA) [8], 0%; in [9], 20%; in the test with Setaria faberi (SETFA) [10], 70%.

For `Cc1sc(-c2ccc(F)cc2F)nc1C1C(=O)[C@@H]2CC[C@@H](C2)C1=O` (stereo partly drawn) [Compound T70], the pest or weed control at 250 g/ha is 70% in [1]; 100% in test [2]; 30% with Avena fatua (AVEFA) [3]; 60% in test [4]; 100% in the test with Setaria faberi (SETFA) [5]; 90% in [6]. For the same compound, the pest or weed control at 250 g/ha in [7] worked out at 40%; with Avena fatua (AVEFA) [8], 50%; in test [9], 100%; in the test with Setaria faberi (SETFA) [10], 100%.

`O=C1C(c2nc(-c3ccc(Br)cc3)sc2CC(F)(F)F)C(=O)[C@H]2CC[C@@H]1C2` (stereo partly drawn) [Compound T40]: the pest or weed control at 250 g/ha was determined as 100% in test [1]; 0% in test [2]; 100% in the test with Avena fatua (AVEFA) [3]; 100% in [4]; 100% in the test with Setaria faberi (SETFA) [5]; 100% in test [6]. Besides, the pest or weed control at 250 g/ha was 0% in test [7], 100% in the test on Avena fatua (AVEFA) [8], 100% in [9] and 100% with Setaria faberi (SETFA) [10].

On to `CCc1sc(-c2c(C)cc(Cl)cc2F)nc1C1C(=O)[C@@H]2CC[C@@H](C2)C1=O` (stereo partly drawn) [Compound T45], for which the pest or weed control at 250 g/ha in [1] came to 90%; in test [2], 0%; in the test with Avena fatua (AVEFA) [3], 30%; in test [4], 100%; in the test with Setaria faberi (SETFA) [5], 100%; in test [6] it was 100%. The pest or weed control at 250 g/ha was found to be 0% in test [7], 100% in the test on Avena fatua (AVEFA) [8], 100% in test [9] and 100% in the test on Setaria faberi (SETFA) [10].

As to `Cc1cc(Br)ccc1-c1nc(C2=C(OC(=O)C3CC3)[C@@H]3CC[C@@H](C3)C2=O)c(C)s1` [Compound P13], the pest or weed control at 250 g/ha in test [1] was found to be 70%; in [2] it was 0%; with Avena fatua (AVEFA) [3], 100%; in test [4] it was 50%; in the test on Setaria faberi (SETFA) [5], 100%; in [6], 90%. In addition, the pest or weed control at 250 g/ha in test [7] turned out to be 0%; in the test with Avena fatua (AVEFA) [8], 90%; in test [9], 100%; in the test on Setaria faberi (SETFA) [10], 100%.

Regarding `CCc1sc(-c2ccc(Cl)cc2)nc1C1=C(OC(=O)C2CC2)C2CCC(C2)C1=O` (stereo not drawn) [Compound P1], the pest or weed control at 250 g/ha turned out to be 80% in test [1]; 0% in [2]; 0% in the test with Avena fatua (AVEFA) [3]; 100% in test [4]; 100% in the test with Setaria faberi (SETFA) [5]; 100% in test [6]. Also, the pest or weed control at 250 g/ha in test [7] was determined as 0%; in the test on Avena fatua (AVEFA) [8], 100%; in test [9], 100%; in the test with Setaria faberi (SETFA) [10], 100%.

Take `CCOc1ccc(-c2nc(C3C(=O)[C@@H]4CC[C@@H](C4)C3=O)c(C)s2)cc1F` (stereo partly drawn) [Compound T77]: the pest or weed control at 250 g/ha in test [1] amounted to 0%; in test [2] it was 50%; in the test on Avena fatua (AVEFA) [3], 0%; in test [4], 0%; with Setaria faberi (SETFA) [5] it was 0%; in test [6], 0%. The pest or weed control at 250 g/ha turned out to be 0% in [7], 0% in the test on Avena fatua (AVEFA) [8], 60% in test [9] and 70% in the test on Setaria faberi (SETFA) [10].

On to `Cc1sc(-c2ccc(Cl)c(Cl)c2)nc1C1=C(OC(=O)C(C)(C)C)[C@H]2CC[C@H](C2)C1=O` [Compound P3], for which the pest or weed control at 250 g/ha in test [1] worked out at 20%; in [2] it was 0%; in the test on Avena fatua (AVEFA) [3], 0%; in test [4], 80%; in the test with Setaria faberi (SETFA) [5], 100%; in [6], 60%. The pest or weed control at 250 g/ha in test [7] was determined as 0%; in the test on Avena fatua (AVEFA) [8], 0%; in test [9] it was 80%; with Setaria faberi (SETFA) [10], 100%.

Turning to `Cc1sc(-c2ccc([S+](C)[O-])cc2)nc1C1C(=O)[C@@H]2CC[C@@H](C2)C1=O` (stereo partly drawn) [Compound T82], the pest or weed control at 250 g/ha in [1] came to 0%; in test [2], 0%; in the test with Avena fatua (AVEFA) [3], 0%; in test [4] it was 40%; in the test on Setaria faberi (SETFA) [5], 80%; in test [6] it was 20%. For the same compound, the pest or weed control at 250 g/ha in test [7] was 30%; in the test with Avena fatua (AVEFA) [8] it was 0%; in [9], 100%; in the test on Setaria faberi (SETFA) [10] it was 100%.

As to `CCc1sc(-c2ccc(Cl)cc2F)nc1C1C(=O)[C@@H]2CC[C@@H](C2)C1=O` (stereo partly drawn) [Compound T26], the pest or weed control at 250 g/ha is 90% in [1]; 0% in test [2]; 60% with Avena fatua (AVEFA) [3]; 100% in [4]; 100% with Setaria faberi (SETFA) [5]; 100% in test [6]. Also, the pest or weed control at 250 g/ha amounted to 40% in test [7], 100% in the test on Avena fatua (AVEFA) [8], 100% in [9] and 100% in the test on Setaria faberi (SETFA) [10].

As for `C=Cc1ccc(-c2nc(C3C(=O)[C@@H]4CC[C@@H](C4)C3=O)c(C)s2)cc1` (stereo partly drawn) [Compound T78], the pest or weed control at 250 g/ha in [1] is 0%; in test [2], 0%; in the test with Avena fatua (AVEFA) [3], 90%; in test [4], 0%; in the test on Setaria faberi (SETFA) [5], 0%; in test [6] it was 60%. The pest or weed control at 250 g/ha in test [7] amounted to 0%; with Avena fatua (AVEFA) [8], 0%; in test [9], 70%; in the test on Setaria faberi (SETFA) [10], 80%.

Values taken from US8598365B2, “Herbicides” (Syngenta Limited, priority 2007, dated 2013).
